The values below come from ChEMBL document CHEMBL1130598, “Pyrroles and other heterocycles as inhibitors of p38 kinase” (Bioorg Med Chem Lett, 1998).

The species entered for test [1] is Rattus norvegicus. Nature of the test: Inhibition of secondary paw swelling in rat adjuvant arthritis model. Format: functional. To be noted: Rattus norvegicus; read-out: ID50 (the source's name).
The subject of test [2] is Rattus norvegicus. Nature of the test: Inhibition of secondary paw swelling in rat adjuvant arthritis model at 80 mg/kg b.i.d. It counts as functional. To be noted: intraduodenal.
The target in test [3] is Mitogen-activated protein kinase 8 (Homo sapiens, UniProt P45983). As to the kind of experiment: Inhibition of c-Jun N-terminal kinase 1-alpha 1 at 5 uM.
Mitogen-activated protein kinase 8, sequence (P45983 whole entry): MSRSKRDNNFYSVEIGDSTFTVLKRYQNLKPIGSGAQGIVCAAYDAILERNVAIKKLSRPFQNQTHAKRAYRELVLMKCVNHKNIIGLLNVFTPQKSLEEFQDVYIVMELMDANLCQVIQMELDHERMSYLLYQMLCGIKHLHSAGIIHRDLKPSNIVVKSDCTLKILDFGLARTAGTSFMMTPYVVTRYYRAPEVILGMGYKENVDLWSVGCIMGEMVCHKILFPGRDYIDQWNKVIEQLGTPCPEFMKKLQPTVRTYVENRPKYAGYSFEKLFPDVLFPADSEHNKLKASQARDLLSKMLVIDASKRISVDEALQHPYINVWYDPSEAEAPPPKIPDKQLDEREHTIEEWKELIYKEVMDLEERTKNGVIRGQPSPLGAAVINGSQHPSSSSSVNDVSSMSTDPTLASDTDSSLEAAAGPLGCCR

As usually defined, the inhibition in vivo is the relative decrease from the control value, in per cent. By inhibition is commonly meant the percentage by which the read-out fell short of the control. Low readings indicate a weak effect, high ones a strong effect. As for `C[S+]([O-])c1ccc(-c2nc(-c3ccc(F)cc3)c(-c3ccncc3)[nH]2)cc1` (stereo not drawn) [SB-203580], the ED50 in test [1] came to 80 mg/kg/day. In addition, the inhibition in vivo at 80 mg/kg in test [2] was determined as 74%. The compound further returned an inhibition in test [3] of 50%.
